The conditions of data set [1]: volume of water per 1 g of (+)-catechin; cited from earlier work.
A short description of data set [2]: solubility of double salts in the presence of 2% of benzyl alcohol. It counts as physicochemical. The following applies: salts formed with L-lysine and an acid. How it is done: These double salts of (+)-catechin are all hydrosoluble but the solubility varies somewhat as a function of the acid used.
Upon cooling, salts precipitate and 1 to 3% of benzyl alcohol are added, advantageously 2%. The solution is reheated to about 45° C. and allowed to cool again, preferably to below 10° C. The double salt then remains in solution.

The nature of data set [3]: pH of solutions of the salts. It counts as physicochemical.

Counter-ions that a name gives are not always drawn. Like-named read-outs stand apart in the source and are kept apart here. Some results are limits rather than exact numbers.

Take `Oc1cc(O)c2c(c1)O[C@H](c1ccc(O)c(O)c1)[C@@H](O)C2` [(+)-catechin, trans-2-(3,4-dihydroxyphenyl)-3,4-dihydro-2H-1-benzopyran-3,5,7-triol]: the “solubility of (+)-catechin in water” value in data set [1] was 1100-1200 ml of water.

As to `Oc1cc(O)c2c(c1)O[C@H](c1ccc(O)c(O)c1)[C@@H](O)C2` [Example 2], in data set [2] (listed as salt formed with L-lysine and hydrochloric acid), the solubility entry is “above 15 mg of (+)-catechin per ml”.

As to `Oc1cc(O)c2c(c1)O[C@H](c1ccc(O)c(O)c1)[C@@H](O)C2` [Example 6], the “pH of an aqueous concentrated solution” value in data set [3] is reported as 6.5. Besides, the solubility in data set [2] (water, 2% benzyl alcohol, organic solvent or mixture, read-out: solubility) was over 15 mg/mL.

For `Oc1cc(O)c2c(c1)O[C@H](c1ccc(O)c(O)c1)[C@@H](O)C2` [salt formed with L-lysine and acetic acid], in data set [2], the solubility result was “above 15 mg of (+)-catechin per ml”.

For the compound `Oc1cc(O)c2c(c1)O[C@H](c1ccc(O)c(O)c1)[C@@H](O)C2` [salt formed with L-lysine and citric acid], the solubility in data set [2] is given as 9.5 mg of (+)-catechin per ml.

For the compound `Oc1cc(O)c2c(c1)O[C@H](c1ccc(O)c(O)c1)[C@@H](O)C2` [salt formed with L-lysine and glucuronic acid], the solubility entry in data set [2] is listed as “above 15 mg of (+)-catechin per ml”.

(Values after US4285964A, “Salts of (+)-catechine, their preparation and use, and compositions containing these salts” (Continental Pharma, priority 1979, dated 1981).)
